Source: patent EP0519427A2, “N-substituted-3-iodopropiolamide, production and use thereof” (priority 1991, dated 1992)
Read-outs that look alike come from different tables or passages of the source.

Tests used:
Test in all cases: Antibacterial and antifungal activity, paper disc method
Assay type in all cases: cell-based
[1] = system: Aspergillus niger IFO-4407
Description: (§1) Antibacterial and antifungal activity tests for various bacteria and fungi were conducted. The tests were carried out by the conventional paper disc method. That is, a paper disc (d=8 mm) was dipped in aqueous or methanol solution of the compound of the present invention (concentration : 1,000 µg/ml), then dried and used.
(§2) As bacteria to be tested, • ① Staphylococcus aureus IFO-12732 [hereinafter abbreviated to Sta.] • ② Bacillus subtilis IFO-13719 [Bac.] • ③ Escherichia coli IFO-3301 [Esc.] were used. As yeast to be tested, • ④ Saccharomyces cerevisiae IFO-0210 [Sac.] • ⑤ Candida albicans IFO-0583 [Can.] were used. As fungi to be tested, • ⑥ Aspergillus niger IFO-4407 [Asp.] • ⑦ Penicillium citrinum IFO-7784 [Pen.] • ⑧ Tyromyces palustris IFO-30339 [Tyr.] • ⑨ Coriolus versicolor IFO-30340 [Cor.] were used. Among the above fungi, Tyr. and Cor. are wood rot fungi.
(§3) As the test media, agar media shown below were used. That is, TSA (Trypticase Soy Agar) medium was used for Sta., Bac. and Esc.; YNB (Yeast Nitrogen Base) agar medium was used for Sac. and Can.; SDA (Sabouraud Dextrose Agar) medium was used for Asp. and Pen.; and PDA (Potato Dextrose Agar) medium was used for Try. and Cor.
(§4) The determination of antibacterial and antifungal effectiveness was carried out by measuring the diameter of the growth inhibition circle generated on the circumference of the paper disc. The indication of effectiveness is given as follows: -: no growth inhibition circle was observed. +: diameter of the growth inhibition circle was 9 - 20 mm ++: diameter of the growth inhibition circle was 21 - 40 mm +++: diameter of the growth inhibition circle was 41 mm or more

[2] = system: Bacillus subtilis IFO-13719; conditions: Bacillus subtilis
Description: as §1, §2, §3, §4

[3] = system: Candida albicans IFO-0583
Description: as §1, §2, §3, §4

[4] = system: Coriolus versicolor IFO-30340; conditions: Trametes versicolor
Description: as §1, §2, §3, §4

[5] = system: Escherichia coli IFO-3301; conditions: for zone of inhibition at 1000 µg/mL: Escherichia coli
Description: as §1, §2, §3, §4

[6] = system: Penicillium citrinum IFO-7784
Description: as §1, §2, §3, §4

[7] = system: Saccharomyces cerevisiae IFO-0210
Description: as §1, §2, §3, §4

[8] = system: Staphylococcus aureus IFO-12732
Description: as §1, §2, §3, §4

[9] = system: Tyromyces palustris IFO-30339; conditions: read-out: diameter of the growth inhibition circle, Tyr.(IFO-30339)
Description: as §1, §2, §3, §4

[10] = IFO4407, paper disc d=8 mm dipped in 1,000 µg/ml solution, SDA medium, read-out: diameter of the growth inhibition circle, Asp.(IFO-4407)
[11] = IFO13719, paper disc d=8 mm dipped in 1,000 µg/ml solution, TSA medium, read-out: diameter of the growth inhibition circle, Bac.(IFO-13719)
[12] = IFO0583, paper disc d=8 mm dipped in 1,000 µg/ml solution, YNB agar medium, read-out: diameter of the growth inhibition circle, Can.(IFO-0583)
[13] = IFO30340, paper disc d=8 mm dipped in 1,000 µg/ml solution, PDA medium, read-out: diameter of the growth inhibition circle, Cor.(IFO-30340)
[14] = IFO3301, paper disc d=8 mm dipped in 1,000 µg/ml solution, TSA medium, read-out: diameter of the growth inhibition circle, Esc.(IFO-3301)
[15] = IFO7784, paper disc d=8 mm dipped in 1,000 µg/ml solution, SDA medium, read-out: diameter of the growth inhibition circle, Pen.(IFO-7784)
[16] = IFO0210, paper disc d=8 mm dipped in 1,000 µg/ml solution, YNB agar medium, read-out: diameter of the growth inhibition circle, Sac.(IFO-0210)
[17] = IFO12732, paper disc d=8 mm dipped in 1,000 µg/ml solution, TSA medium, read-out: diameter of the growth inhibition circle, Sta.(IFO-12732)
[18] = paper disc d=8 mm dipped in 1,000 µg/ml solution, PDA medium
[19] = paper disc d=8 mm dipped in 1,000 µg/ml solution, TSA medium

| Structure (SMILES) | zone of inhibition at 1000 µg/mL [1, 10] [mm] | zone of inhibition at 1000 µg/mL [2, 11] [mm] | zone of inhibition at 1000 µg/mL [3, 12] [mm] | zone of inhibition at 1000 µg/mL [4, 13] [mm] | zone of inhibition at 1000 µg/mL [5, 14] [mm] | zone of inhibition at 1000 µg/mL [6, 15] [mm] | zone of inhibition at 1000 µg/mL [7, 16] [mm] | zone of inhibition at 1000 µg/mL [8, 17] [mm] | zone of inhibition at 1000 µg/mL [9, 18] [mm] | diameter of the growth inhibition circle, Esc.(IFO-3301) [5, 19] | zone of inhibition at 1000 µg/mL ([1]; IFO4407, read-out: diameter of the growth inhibition circle, Asp.(IFO-4407)) [mm] | zone of inhibition at 1000 µg/mL ([2]; IFO13719, read-out: diameter of the growth inhibition circle, Bac.(IFO-13719)) [mm] | zone of inhibition at 1000 µg/mL ([3]; IFO0583, read-out: diameter of the growth inhibition circle, Can.(IFO-0583)) [mm] | zone of inhibition at 1000 µg/mL ([4]; IFO30340, read-out: diameter of the growth inhibition circle, Cor.(IFO-30340)) [mm] | zone of inhibition at 1000 µg/mL ([5]; IFO3301, read-out: diameter of the growth inhibition circle, Esc.(IFO-3301)) [mm] | zone of inhibition at 1000 µg/mL ([6]; IFO7784, read-out: diameter of the growth inhibition circle, Pen.(IFO-7784)) [mm] | zone of inhibition at 1000 µg/mL ([7]; IFO0210, read-out: diameter of the growth inhibition circle, Sac.(IFO-0210)) [mm] | zone of inhibition at 1000 µg/mL ([8]; IFO12732, read-out: diameter of the growth inhibition circle, Sta.(IFO-12732)) [mm] | zone of inhibition at 1000 µg/mL [9] [mm] |
| --- | --- | --- | --- | --- | --- | --- | --- | --- | --- | --- | --- | --- | --- | --- | --- | --- | --- | --- | --- |
| O=C(C#CI)Nc1cccc(Cl)c1 [Example 3, N-(3-Chlorophenyl)-3-iodopropiolamide] | 21 to 40 | 21 to 40 | 21 to 40 | > 41 | 9 to 20 | > 41 | 21 to 40 | 21 to 40 | > 41 |  |  |  |  |  |  |  |  |  |  |
| O=C(C#CI)NCCc1ccccc1 [Example 16, N-(2-Phenylethyl)-3-iodopropiolamide] | 21 to 40 | 21 to 40 | 21 to 40 | > 41 | 9 to 20 | > 41 | > 41 | 21 to 40 | > 41 |  |  |  |  |  |  |  |  |  |  |
| O=C(C#CI)Nc1cccc(F)c1 [Example 17, N-(3-Fluorophenyl)-3-iodopropiolamide] | 21 to 40 | 21 to 40 | 21 to 40 | > 41 | 9 to 20 | > 41 | 21 to 40 | 21 to 40 | > 41 |  |  |  |  |  |  |  |  |  |  |
| CCCCN(CCCC)C(=O)C#CI [Example 18, N,N-Di(n-butyl)-3-iodopropiolamide] | 21 to 40 | 9 to 20 | 21 to 40 | > 41 |  | > 41 | 21 to 40 | 21 to 40 | > 41 | - |  |  |  |  |  |  |  |  |  |
| O=C(C#CI)N1CCCCC1 [Example 19, 1-(3-Iodopropioloyl)piperidine] | 21 to 40 | 21 to 40 | 21 to 40 | > 41 | 9 to 20 | > 41 | 21 to 40 | 21 to 40 | > 41 |  |  |  |  |  |  |  |  |  |  |
| CC1COCC(C)N1C(=O)C#CI (stereo not drawn) [Example 20, 4-(3-Iodopropioloyl)-3,5-dimethylmorpholine] | 21 to 40 | 9 to 20 | 9 to 20 | > 41 |  | > 41 | 21 to 40 | 21 to 40 | > 41 | - |  |  |  |  |  |  |  |  |  |
| O=C(C#CI)N1CCN(c2ccccc2)CC1 [Example 21, 1-(3-Iodopropioloyl)-4-phenylpiperazine] | 21 to 40 | 9 to 20 | 21 to 40 | > 41 |  | > 41 | 21 to 40 | 21 to 40 | > 41 | - |  |  |  |  |  |  |  |  |  |
| O=C(C#CI)NC1CCCCC1 [Example 22, N-Cyclohexyl-3-iodopropiolamide] | 21 to 40 | 9 to 20 | 21 to 40 | > 41 | 9 to 20 | > 41 | 21 to 40 | 21 to 40 | > 41 |  |  |  |  |  |  |  |  |  |  |
| C=CCNC(=O)C#CI [Example 23, N-Allyl-3-iodopropiolamide] |  |  |  |  |  |  |  |  |  |  | 21 to 40 | 9 to 20 | 21 to 40 | > 41 | 9 to 20 | > 41 | 21 to 40 | 21 to 40 | > 41 |
| O=C(C#CI)Nc1ccc(Cl)cc1 [Example 24, N-(4-Chlorophenyl)-3-iodopropiolamide] | 21 to 40 | 9 to 20 | 21 to 40 | > 41 | 9 to 20 | > 41 | 21 to 40 | 21 to 40 | > 41 |  |  |  |  |  |  |  |  |  |  |
| O=C(C#CI)Nc1ccc(Cl)cc1Cl [Example 25, N-(2,4-Dichlorophenyl)-3-iodopropiolamide] | 21 to 40 | 9 to 20 | 21 to 40 | > 41 | 9 to 20 | > 41 | 21 to 40 | 21 to 40 | > 41 |  |  |  |  |  |  |  |  |  |  |
| O=C(C#CI)Nc1cccc(C(F)(F)F)c1 [Example 26, N-(3-Trifluoromethylphenyl)-3-iodopropiolamide] | 21 to 40 | 9 to 20 | 21 to 40 | > 41 | 9 to 20 | > 41 | 21 to 40 | 21 to 40 | 21 to 40 |  |  |  |  |  |  |  |  |  |  |
